According to patent publication US9187784B2, “EphA4 is a disease modifier in motor neuron disease” (VIB VZW, priority 2011, dated 2015):
Marks after values point to notes of the source that are not given here.

Experiments:
TDP43A315T embryos = test: mutant TDP-43-induced motor axonopathy in zebrafish embryos; type: in vivo; conditions: zebrafish embryos
Description: FIG. 14: Inhibiting EphA4 signaling rescues motor axonopathies induced by overexpression of mutant TDP-43 and knockdown of Smn. Y-axes show motor axon length of zebrafish embryos (30 hpf) expressing TDP^WT (black bar) or TDP^A315T (white bar) (Panels A, B) or with unaltered (black bar) or reduced expression levels of Smn (white bar) (Panels C, D). Smn knockdown was established by injection of 3 ng (Panel C) or 6 ng (Panel D) atg-smn morpholino. Ctr-smn morpholino was injected as control. RTK1 signaling was inhibited by injection of 3 ng atg-RTK1 morpholino (shaded bars) (Panels A, C) or by treatment with C1 (500 μM, shaded bars) (Panels B, D). Injection of ctr-RTK1 morpholino and application of a 1/250 dilution of DMSO were used as control. ANOVA and Bonferroni's multiple comparison tests were used for statistical analysis: TDP^A315T/atg-RTK1 (n=24) vs. TDP^A315T/ctr-RTK1 (n=34, p=7.86×10^−5, Panel A), TDP^A315T/C1 (n=21) vs. TDP^A315T/DMSO (n=21, p=0.045, Panel B), atg-smn/atg-RTK1 (n=35) vs. atg-smn/ctr-RTK1 (n=35, p=4.93×10^−8, Panel C), atg-smn/C1 (n=91) vs. atg-smn/DMSO (n=105, p=1.27×10^−6, Panel D). Error bars are s.e.m.
Mann-Whitney test was used to determine significance between TDPA315T/ctr-RTK1 (4.5 ng) vs. TDPA315T/atg-RTK1 (4.5 ng, * p=0.001) and between TDPA315T/control vs. TDPA315T/C1 (° p=0.029). Control=1/250 DMSO and C1=500 μM.
(§1) A morpholino database of translation-blocking morpholinos (atg-mo) was used to perform a morpholino-based knockdown screening in a zebrafish model for ALS.^13 The standard control morpholino (5′-[…]-′3) (SEQ ID NO:4), provided by Gene tools, was used as control. Three nanograms of morpholino were co-injected with […] of SOD1 mRNA and the effect of gene knockdown on the mutant SOD1-induced axonopathy analyzed. Each morpholino was tested in two separate experiments. Only morphologically normal embryos were included for further analysis. Overexpression of SOD1 or TDP-43, applied to validate the protective morpholino, was established by injection of 1.76 ng SOD1 mRNA or 1.43 ng TDP-43 mRNA, respectively. Antisense morpholinos to knockdown zebrafish RTK1, RTK2, Smn and their five base pair-mismatch control morpholinos were developed by Gene tools: atg-RTK1 (5′-[…]-′3) (SEQ ID NO:5), atg-RTK2 (5′-[…]-[…]-′3) (SEQ ID NO:6), splice-RTK2 (5′-[…]-[…]-′3) (SEQ ID NO:7) and atg-smn (5′-[…]-3′) (SEQ ID NO:8). Compound 1 (2,5-dimethylpyrrolyl benzoic acid, Matrix Scientific) dissolved in DMSO was added to the water of 6-hpf-old zebrafish embryos.

[1] = test system: mutant SOD1-overexpressing fish; test: mutant SOD1-induced motor axonopathy in zebrafish embryos (percentage affected embryos, motor axon length); type: in vivo; conditions: for % affected embryos: Table 3, SOD1A4V embryos
Source text: FIG. 1: EphA4 knockdown rescues mutant SOD1-induced motor axonopathy. […] Abnormal branching is indicated with arrowhead. Y-axes show motor axon length of zebrafish embryos expressing wild-type SOD1 (black bar, Panels D-G) or mutant SOD1 (white bar, Panels D-G). Knockdown of RTK2 in SOD1A4V- (Panel D), SOD1G93A- (Panel E) and SOD1G37R- (Panel F) expressing fish was established by co-injection of increasing amounts of atg-RTK2 morpholino (shaded bars). RTK1 expression was inhibited in SOD1A4V-expressing fish by co-injection of atg-RTK1 morpholino (shaded bars, Panel G). Ctr-RTK2 and ctr-RTK1 were used as control. ANOVA and Bonferroni's multiple comparison tests were used for statistical analysis. Comparing axonal length in SOD1A4V fish injected with ctr-RTK2 (n=39) vs. different doses atg-RTK2: 3 ng (n=43, p=0.0059), 4.5 ng (n=37, p=0.0016, Panel D), SOD1G93A: ctr-RTK2 (n=60) vs. atg-RTK2: 1.5 ng (n=55, p=0.015), 3 ng (n=51, p=2.82×10-9), 4.5 ng (n=46, p=2.22×10-15, Panel E), SOD1G37R: ctr-RTK2 (n=37) vs. atg-RTK2: 3 ng (n=25, p=0.027), 4.5 ng (n=36, p=0.0018, Panel F) and SOD1A4V: ctr-RTK1 (n=49) vs. atg-RTK1: 1.5 ng (n=51, p=2.51×10-7), 3 ng (n=64, p=7.99×10-10), 4.5 ng (n=54, p<1×10-20, Panel G). Western blot of SOD1WT or SOD1A4V (1.76 ng) expressing zebrafish embryos (30 hpf), co-injected with either ctr-RTK1 or atg-RTK1 (4.5 ng). Sixty embryos were used per group with actin as the loading control (H). Immunostaining of rtk1 (green) in rhombomeres 3 and 5 and of ephrin-b2 (magenta) in rhombomere 4 in zebrafish embryos injected with either ctr-RTK1 or atg-RTK1 (4.5 ng). RTK1-depleted embryos show disorganized rhombomere boundaries (arrowhead, I, Scale bar 50 μm). Error bars are s.e.m.
FIG. 2: RTK2 knockdown protects motor axons against SOD1^A4V-induced injury. Effect of RTK2 knockdown, established by injection of splice-rtk2 morpholino, on the motor axon length of SOD1^A4V-expressing zebrafish embryos (30 hpf). SOD1^WT-expressing fish and a non-functional five-base pair-mismatch control morpholino (ctr-RTK2) were used as control (Panel A). ANOVA and Bonferroni's multiple comparison tests were used for statistical analysis: SOD1^A4V/ctr-RTK2 (n=56) vs. SOD1^A4V/spl-RTK2 (n=60, 1.79×10^−4). Spl-RTK2 was designed against the exon 2 splice site of the zebrafish RTK2 pre-mRNA and alternatively skipped out exon 2. RT-PCR on non-transgenic fish (lane 1), ctr-RTK2-injected fish (lane 2) and spl-RTK2-injected fish (lane 3) at 30 hpf. Functional RTK2 mRNA, containing exon 2, is indicated by the 818-bp product (upper band) while non-functional RTK2 mRNA, lacking exon 2 is indicated by the 156-bp product (lower band), 60 embryos each group (Panel B). Error bars are s.e.m.
(§2) FIG. 12: Pharmacological inhibition of EphA4 receptor signaling protects against mutant SOD1 pathology in vivo. Effect of treatment with Compound 1 (C1, 500 μM) on the motor axon length of zebrafish embryos (30 hpf). DMSO (1/250 dilution) was used as control (Panel A). ANOVA and Bonferroni's multiple comparison tests were used for statistical analysis: SOD1^A4V/C1 (n=68) vs. SOD1^A4V/DMSO (n=76, p=3.54×10^−5). Effect of KYL-peptide (3 mM) treatment of 60-day-old SOD1^G93A rats on disease onset (Panel B) and survival (Panel C). Artificial CSF (ACSF) was used as control. Average disease onset: 133 days (treated, n=21) versus 125 days (control, n=17, T-test p=0.044). Average survival: 148 days (treated, n=21) versus 139 days (controls, n=17, T-test p=0.041). Error bars are s.e.m.
Effect of RTK2 knockdown (established by injection of atg-RTK2 morpholino) on the percentage of affected wild-type SOD1 or mutant SOD1 (A4V, G93A, G37R) zebrafish embryos (30 hpf). Ctr-RTK2 morpholino was used as control. An embryo was considered as affected when it had more than 10% abnormally branched motor axons. Significance of mtSOD1/ctr-RTK2 (4.5 ng) vs. mtSOD1/atg-RTK2 (4.5 ng) was determined by Mann-Whitney test, * p=0.0075, ° p=0.039 and # p=0.0052. […]

zebrafish embryos = test: morpholino-based smn knockdown: abnormally branched and truncated motor axons in zebrafish embryos; type: in vivo; conditions: for truncation affected (%): affected = more than 5% truncated motor axons; for branching affected (%): affected = more than 10% abnormally branched motor axons
Description: FIG. 15: Smn knockdown reduces the motor axon length in zebrafish embryos. […] The non-functional five-base pair-mismatch control morpholino (ctr-smn) was used as control. ANOVA and Bonferroni's multiple comparison tests were used for statistical analysis: ctr-smn (6 ng, n=42) vs. 3 ng atg-smn (n=28, p=8.99×10^−3), 4.5 ng atg-smn (n=30, 3.37×10^−7), 6 ng atg-smn (n=41, p<1×10-20). Error bars are s.e.m.
Effect of smn knockdown, induced by injection of increasing amounts of atg-smn morpholino, on the percentage affected embryos. An embryo was considered as affected when it had more than 10% abnormally branched or more than 5% truncated motor axons. Significance of ctr-smn (6 ng) vs. atg-smn (6 ng) was determined by Mann-Whitney test, *p=3×10-4, ° p=1.3×10-4.
as §1

SOD1G93A rat = test: KYL peptide intracerebroventricular treatment of SOD1G93A rats (disease onset, survival); type: in vivo
Description: as §2
EphA4−/− mice were mated with SOD1G93A mice for at least six generations. All experiments were littermate and gender controlled. […] The EphA4 blocking peptide ([…] (SEQ ID NO:1)-95% purity; Eurogentec) was a 3 mM solution in artificial cerebrospinal fluid and infused into the left lateral ventricle of 60-day-old female rats, using mini-osmotic pumps (28 days, 0.25 μl/h, Model 2004, Alzet) as previously described.^46 Disease onset, progression and survival of SOD1G93A rats were analyzed by weight and rotarod performance (five times for three minutes at 15 rpm) three times a week. […]

EphA4 = EphA4 (Homo sapiens, UniProt P54764); conditions: WO2004/028551; cited from earlier work
Sequence of EphA4 (P54764 20-986, species assumed): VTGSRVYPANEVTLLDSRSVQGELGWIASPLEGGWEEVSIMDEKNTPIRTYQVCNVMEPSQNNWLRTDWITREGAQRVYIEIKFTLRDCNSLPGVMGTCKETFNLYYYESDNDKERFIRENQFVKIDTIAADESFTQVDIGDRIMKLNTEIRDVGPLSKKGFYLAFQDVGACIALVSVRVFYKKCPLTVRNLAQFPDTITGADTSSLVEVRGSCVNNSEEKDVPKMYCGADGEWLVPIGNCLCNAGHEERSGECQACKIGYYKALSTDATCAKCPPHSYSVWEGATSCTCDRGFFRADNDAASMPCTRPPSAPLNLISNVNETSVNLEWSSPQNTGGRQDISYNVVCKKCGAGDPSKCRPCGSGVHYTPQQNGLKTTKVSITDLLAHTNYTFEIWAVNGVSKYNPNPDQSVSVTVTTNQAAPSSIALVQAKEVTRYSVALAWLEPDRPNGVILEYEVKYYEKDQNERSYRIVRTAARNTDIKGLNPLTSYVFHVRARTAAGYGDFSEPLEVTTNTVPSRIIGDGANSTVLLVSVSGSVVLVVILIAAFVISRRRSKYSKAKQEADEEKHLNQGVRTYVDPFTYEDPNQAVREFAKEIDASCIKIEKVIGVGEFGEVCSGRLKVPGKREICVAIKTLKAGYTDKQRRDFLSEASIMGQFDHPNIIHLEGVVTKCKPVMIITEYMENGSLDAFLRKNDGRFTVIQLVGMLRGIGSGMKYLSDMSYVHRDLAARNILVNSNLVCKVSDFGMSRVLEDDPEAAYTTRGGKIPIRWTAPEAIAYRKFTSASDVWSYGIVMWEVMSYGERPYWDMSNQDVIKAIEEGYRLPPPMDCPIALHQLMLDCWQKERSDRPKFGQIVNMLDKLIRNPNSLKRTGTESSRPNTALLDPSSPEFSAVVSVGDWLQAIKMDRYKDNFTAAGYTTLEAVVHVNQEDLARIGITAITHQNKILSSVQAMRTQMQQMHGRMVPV

For “2,5-dimethylpyrrolyl benzoic acid [Compound C1]”, the “effect on outgrowth deficit and aberrant branching induced by mutant TDP-43” value (TDP43A315T embryos) was “rescued the outgrowth deficit and aberrant branching induced by mutant TDP-43”.
With “5′-CCTCCCACTGA-AAATGGACAGAGGA-′3 (antisense CCTCCCACTGAAAATGGACAGAGGA; all phosphorodiamidate morpholino (PMO)) [spl-RTK2]” the “effect on mutant SOD1-induced axonopathy” value ([1]; SOD1A4V zebrafish embryos, 30 hpf) was “replicating the protective effect of RTK2 knockdown”, the “% affected embryos” value ([1]; morpholino 0.4 ng) was 40 (30) % and the “% affected embryos” value ([1]; morpholino 0.8 ng) was 19 (31) %. The “% affected embryos” value ([1]; morpholino 1.5 ng) was 13* (31) %.
With “5′-CGACATCTTCTGCACCATTGGC-3′ (all phosphorodiamidate morpholino (PMO)) [atg-smn]” the “truncation affected (%)” value (zebrafish embryos; morpholino 3 ng) was 7%, the “branching affected (%)” value (zebrafish embryos; morpholino 3 ng) was 39% and the “truncation affected (%)” value (zebrafish embryos; morpholino 4.5 ng) was 11%. The “branching affected (%)” value (zebrafish embryos; morpholino 4.5 ng) was 46%, the “truncation affected (%)” value (zebrafish embryos; morpholino 6 ng) was 42° % and the “branching affected (%)” value (zebrafish embryos; morpholino 6 ng) was 71* %.
In the case of “KYLPYWPVLSSL (EphA4 inhibitory peptide) [KYL peptide]”, the Average survival (SOD1G93A rat; KYL-peptide 3 mM intracerebroventricular from day 60, controls 139 days) is given as 148 days, the Average disease onset (SOD1G93A rat; KYL-peptide 3 mM intracerebroventricular from day 60, onset by rotarod, control 125 days) is given as 133 days and the “binding to EphA4” value (EphA4) is given as “preferentially bind to EphA4”.
For “VTMEAINLAFPG (EphA4 inhibitory peptide) [VTM peptide]”, the “binding to EphA4” value (EphA4) is given as “preferentially bind to EphA4”.
